Measured values from publication PMC5218480 (PLoS ONE, 2017).

Test system: MV-4-11 cells
Experiment: Gene expression microarray analysis (Affymetrix PrimeView) and GSEA
Type: cell-based, human
Set-up: RFU PODN (11730768_x_at) / Fold change /veh PODN (11730768_x_at) / RFU LINC00158 (11744669_a_at) / Fold change /veh LINC00158 (11744669_a_at) / RFU DUSP10 (11751237_a_at) / Fold change /veh DUSP10 (11751237_a_at) / RFU ID3 (11757404_x_at) / Fold change /veh ID3 (11757404_x_at) / RFU PLEKHG5 (11737974_s_at) / Fold change /veh PLEKHG5 (11737974_s_at) / RFU LRRC4B (11730491_at) / Fold change /veh LRRC4B (11730491_at) / RFU GIMAP4 (11747438_a_at) / Fold change /veh GIMAP4 (11747438_a_at) / RFU KRT8 (11758183_x_at) / Fold change /veh KRT8 (11758183_x_at) / RFU CNN1 (11734310_a_at) / Fold change /veh CNN1 (11734310_a_at) / RFU VPS37D (11726825_at) / Fold change /veh VPS37D (11726825_at) / RFU C10orf10 (11716522_x_at) / Fold change /veh C10orf10 (11716522_x_at) / RFU KIR2DL2 /// KIR2DL4 /// KIR2DL5A /// KIR2DL5B /// KIR2DS1 /// KIR2DS2 /// KIR2DS3 /// KIR2DS4 /// KIR3DL3 /// KIR3DL3 /// KIR3DS1 (11738374_at) / Fold change /veh KIR2DL2 /// KIR2DL4 /// KIR2DL5A /// KIR2DL5B /// KIR2DS1 /// KIR2DS2 /// KIR2DS3 /// KIR2DS4 /// KIR3DL3 /// KIR3DL3 /// KIR3DS1 (11738374_at) / RFU C1QL1 (11718748_at) / Fold change /veh C1QL1 (11718748_at) / RFU TMPRSS4 (11747572_a_at) / Fold change /veh TMPRSS4 (11747572_a_at) / RFU HAMP (11756126_x_at) / Fold change /veh HAMP (11756126_x_at) / RFU RNFT2 (11725882_a_at) / Fold change /veh RNFT2 (11725882_a_at) / RFU NR4A2 (11747474_a_at) / Fold change /veh NR4A2 (11747474_a_at) / RFU ABCC12 (11746883_a_at) / Fold change /veh ABCC12 (11746883_a_at) / RFU TMEM136 (11760407_x_at) / Fold change /veh TMEM136 (11760407_x_at) / RFU CLDN22 /// WWC2 (11732394_at) / Fold change /veh CLDN22 /// WWC2 (11732394_at) / RFU HLA-DPB1 (11760878_x_at) / Fold change /veh HLA-DPB1 (11760878_x_at) / RFU SPINT1 (11716480_a_at) / Fold change /veh SPINT1 (11716480_a_at) / RFU GAP43 (11754022_s_at) / Fold change /veh GAP43 (11754022_s_at) / RFU A4GNT (11735810_at) / Fold change /veh A4GNT (11735810_at) / RFU PRB3 (11715151_x_at) / Fold change /veh PRB3 (11715151_x_at) / RFU TUBB4B (11761932_at) / Fold change /veh TUBB4B (11761932_at) / RFU CAPN14 (11732068_a_at) / Fold change /veh CAPN14 (11732068_a_at) / RFU TMCC2 (11721928_a_at) / Fold change /veh TMCC2 (11721928_a_at) / RFU IRGQ (11745062_a_at) / Fold change /veh IRGQ (11745062_a_at) / RFU FAM174B (11720279_a_at) / Fold change /veh FAM174B (11720279_a_at) / RFU TMPRSS4 (11748680_a_at) / Fold change /veh TMPRSS4 (11748680_a_at) / RFU FAM212B (11763350_a_at) / Fold change /veh FAM212B (11763350_a_at) / RFU PLEKHG5 (11743358_a_at) / Fold change /veh PLEKHG5 (11743358_a_at) / RFU ZSCAN30 (11745921_a_at) / Fold change /veh ZSCAN30 (11745921_a_at) / RFU CMKLR1 (11741424_a_at) / Fold change /veh CMKLR1 (11741424_a_at) / RFU LOC101060620 /// MAPK8IP1 (11723275_at) / Fold change /veh LOC101060620 /// MAPK8IP1 (11723275_at) / RFU SPTSSB (11747773_x_at) / Fold change /veh SPTSSB (11747773_x_at) / RFU PRSS12 (11739890_at) / Fold change /veh PRSS12 (11739890_at) / RFU BIN1 (11741810_x_at) / Fold change /veh BIN1 (11741810_x_at) / RFU WNT11 (11732464_a_at) / Fold change /veh WNT11 (11732464_a_at) / RFU C10orf10 (11716521_a_at) / Fold change /veh C10orf10 (11716521_a_at) / RFU C5orf56 (11738089_at) / Fold change /veh C5orf56 (11738089_at) / RFU CYB561 (11721691_x_at) / Fold change /veh CYB561 (11721691_x_at) / RFU ANKRD19P (11752326_a_at) / Fold change /veh ANKRD19P (11752326_a_at) / RFU OR2T12 /// OR2T33 /// OR2T8 (11738714_s_at) / Fold change /veh OR2T12 /// OR2T33 /// OR2T8 (11738714_s_at) / RFU VCAN (11748164_a_at) / Fold change /veh VCAN (11748164_a_at) / RFU JSRP1 (11732532_at) / Fold change /veh JSRP1 (11732532_at) / RFU KRTAP10-11 (11738290_x_at) / Fold change /veh KRTAP10-11 (11738290_x_at) / RFU MYO3A (11730013_a_at) / Fold change /veh MYO3A (11730013_a_at) / RFU EBF3 (11725865_a_at) / Fold change /veh EBF3 (11725865_a_at) / RFU CAMK2N1 (11719241_x_at) / Fold change /veh CAMK2N1 (11719241_x_at) / RFU C5orf56 (11738088_a_at) / Fold change /veh C5orf56 (11738088_a_at) / RFU OLFML3 (11715873_a_at) / Fold change /veh OLFML3 (11715873_a_at) / RFU LOC100653217 /// NTM (11731650_a_at) / Fold change /veh LOC100653217 /// NTM (11731650_a_at) / RFU MAPK11 (11762145_a_at) / Fold change /veh MAPK11 (11762145_a_at) / RFU FIZ1 (11724087_x_at) / Fold change /veh FIZ1 (11724087_x_at) / RFU OASL (11726364_x_at) / Fold change /veh OASL (11726364_x_at) / RFU SOX15 (11748057_x_at) / Fold change /veh SOX15 (11748057_x_at) / RFU CD79A (11719716_a_at) / Fold change /veh CD79A (11719716_a_at) / RFU HIST1H1D (11736915_at) / Fold change /veh HIST1H1D (11736915_at) / RFU CASKIN2 (11723855_a_at) / Fold change /veh CASKIN2 (11723855_a_at) / RFU LOC730098 (11760151_x_at) / Fold change /veh LOC730098 (11760151_x_at) / RFU OR4N2 (11742367_at) / Fold change /veh OR4N2 (11742367_at) / RFU PRRT2 (11749266_a_at) / Fold change /veh PRRT2 (11749266_a_at) / RFU SNX32 (11753110_a_at) / Fold change /veh SNX32 (11753110_a_at) / RFU CDHR5 (11726645_a_at) / Fold change /veh CDHR5 (11726645_a_at) / RFU RCAN1 (11760418_a_at) / Fold change /veh RCAN1 (11760418_a_at) / RFU FAM167A (11723789_a_at) / Fold change /veh FAM167A (11723789_a_at) / RFU FAM26E (11764081_at) / Fold change /veh FAM26E (11764081_at) / RFU ISYNA1 (11749810_s_at) / Fold change /veh ISYNA1 (11749810_s_at) / RFU ACY1 (11761880_at) / Fold change /veh ACY1 (11761880_at) / RFU 11764098_at / Fold change /veh 11764098_at / RFU SAMD14 (11745864_x_at) / Fold change /veh SAMD14 (11745864_x_at) / RFU NPB (11741838_a_at) / Fold change /veh NPB (11741838_a_at) / RFU TMPRSS6 (11731388_a_at) / Fold change /veh TMPRSS6 (11731388_a_at) / RFU KRTAP10-2 (11738614_at) / Fold change /veh KRTAP10-2 (11738614_at) / RFU ARHGAP8 /// PRR5-ARHGAP8 (11727945_x_at) / Fold change /veh ARHGAP8 /// PRR5-ARHGAP8 (11727945_x_at) / RFU KRTAP5-7 /// NADSYN1 (11734609_at) / Fold change /veh KRTAP5-7 /// NADSYN1 (11734609_at) / RFU RASL12 (11751679_a_at) / Fold change /veh RASL12 (11751679_a_at) / RFU CDKN2B (11736163_a_at) / Fold change /veh CDKN2B (11736163_a_at) / RFU PRF1 (11729649_at) / Fold change /veh PRF1 (11729649_at) / RFU, ZNF638 /// ZNF638-IT1 / Fold change vs veh, ZNF638 /// ZNF638-IT1 / RFU, PANK3 / Fold change vs veh, PANK3 / RFU, SH3YL1 / Fold change vs veh, SH3YL1 / RFU, ZEB2 / Fold change vs veh, ZEB2 / RFU, NRIP1 / Fold change vs veh, NRIP1 / RFU, PTTG1IP / Fold change vs veh, PTTG1IP / RFU, CAPN2 / Fold change vs veh, CAPN2 / RFU, MED14 / Fold change vs veh, MED14 / RFU, SNORA58 / Fold change vs veh, SNORA58 / RFU, C1orf63 / Fold change vs veh, C1orf63 / RFU, LRRFIP1 / Fold change vs veh, LRRFIP1 / RFU, NDUFAF7 / Fold change vs veh, NDUFAF7 / RFU, SLC12A2 / Fold change vs veh, SLC12A2 / RFU, IBTK / Fold change vs veh, IBTK / RFU, ESF1 / Fold change vs veh, ESF1 / Fold change vs veh, TMEM50B / RFU, TAOK1 / Fold change vs veh, TAOK1 / RFU, ACBD3 / Fold change vs veh, ACBD3 / RFU, TMA16 / Fold change vs veh, TMA16 / RFU, RWDD3 / Fold change vs veh, RWDD3 / RFU, BCAT1 / Fold change vs veh, BCAT1 / RFU, EDEM3 / Fold change vs veh, EDEM3 / RFU, TMEM33 / Fold change vs veh, TMEM33 / RFU, WDR75 / Fold change vs veh, WDR75 / RFU, AHCTF1 / Fold change vs veh, AHCTF1 / RFU, TFRC / Fold change vs veh, TFRC / RFU, ZDHHC17 / Fold change vs veh, ZDHHC17 / RFU, NOM1 / Fold change vs veh, NOM1 / RFU, ARL8B / Fold change vs veh, ARL8B / RFU, ZBTB11 / Fold change vs veh, ZBTB11 / RFU, TAMM41 / Fold change vs veh, TAMM41 / RFU, KIAA1704 /// LOC100996395 / Fold change vs veh, KIAA1704 /// LOC100996395 / RFU, ING1 / Fold change vs veh, ING1 / RFU, TRMT61B / Fold change vs veh, TRMT61B / RFU, FUBP3 / Fold change vs veh, FUBP3 / RFU, TP53 / Fold change vs veh, TP53 / RFU, TNKS2 / Fold change vs veh, TNKS2 / RFU, ZFP14 / Fold change vs veh, ZFP14 / RFU, ACTR2 / Fold change vs veh, ACTR2 / RFU, PPP3R1 / Fold change vs veh, PPP3R1 / RFU, PIK3R1 / Fold change vs veh, PIK3R1 / RFU, HNRNPA1 / Fold change vs veh, HNRNPA1 / RFU, RNF170 / Fold change vs veh, RNF170 / RFU, ZNF28 / Fold change vs veh, ZNF28 / RFU, RNGTT / Fold change vs veh, RNGTT / RFU, OGT / Fold change vs veh, OGT / RFU, BRD1 / Fold change vs veh, BRD1 / RFU, MARS / Fold change vs veh, MARS / RFU, ZNF655 / Fold change vs veh, ZNF655 / RFU, FAHD1 / Fold change vs veh, FAHD1 / RFU, BDP1 / Fold change vs veh, BDP1 / RFU, LRRCC1 / Fold change vs veh, LRRCC1 / RFU, ARID1A / Fold change vs veh, ARID1A / RFU, ZNF146 / Fold change vs veh, ZNF146 / RFU, ZNF330 / Fold change vs veh, ZNF330 / RFU, GPN3 / Fold change vs veh, GPN3 / RFU, C9orf123 / Fold change vs veh, C9orf123 / RFU, N4BP2L2 / Fold change vs veh, N4BP2L2 / RFU, ARFIP1 / Fold change vs veh, ARFIP1 / RFU, FAM179B / Fold change vs veh, FAM179B / RFU, BCL10 / Fold change vs veh, BCL10 / RFU, UHRF1BP1L / Fold change vs veh, UHRF1BP1L / RFU, BET1 / Fold change vs veh, BET1 / RFU, CNOT2 / Fold change vs veh, CNOT2 / RFU, ZNF268 / Fold change vs veh, ZNF268 / Fold change vs veh, ZNF507 / RFU, DGCR2 / Fold change vs veh, DGCR2 / RFU, WDSUB1 / Fold change vs veh, WDSUB1 / Fold change vs veh, HSP90B1 /// MIR3652 / RFU, ADSS / Fold change vs veh, ADSS / RFU, GK / Fold change vs veh, GK / RFU, ZNF148 / Fold change vs veh, ZNF148 / RFU, TAF9 / Fold change vs veh, TAF9 / RFU, SLC1A5 / Fold change vs veh, SLC1A5 / RFU, SLMO2 / Fold change vs veh, SLMO2 / RFU, ABCC4 / Fold change vs veh, ABCC4 / RFU, LOC101060439 /// RAP1B / Fold change vs veh, LOC101060439 /// RAP1B / RFU, RFX7 / Fold change vs veh, RFX7 / RFU, GTPBP10 / Fold change vs veh, GTPBP10 / RFU, CNEP1R1 / Fold change vs veh, CNEP1R1 / RFU, BIVM-ERCC5 /// ERCC5 / Fold change vs veh, BIVM-ERCC5 /// ERCC5 / RFU, ILF3 / Fold change vs veh, ILF3 / RFU 11762660_at / Fold change /veh 11762660_at / RFU VCAN (11757783_s_at) / Fold change /veh VCAN (11757783_s_at) / RFU DDX43 (11728927_at) / Fold change /veh DDX43 (11728927_at) / RFU KRT8 (11758188_x_at) / Fold change /veh KRT8 (11758188_x_at) / RFU NKD1 (11759106_at) / Fold change /veh NKD1 (11759106_at) / RFU SRD5A1 (11742802_a_at) / Fold change /veh SRD5A1 (11742802_a_at) / RFU TPSAB1 /// TPSB2 (11721975_s_at) / Fold change /veh TPSAB1 /// TPSB2 (11721975_s_at) / RFU GSTM3 (11746129_a_at) / Fold change /veh GSTM3 (11746129_a_at) / RFU IL23R (11737362_x_at) / Fold change /veh IL23R (11737362_x_at) / RFU TMEM51 (11727254_a_at) / Fold change /veh TMEM51 (11727254_a_at) / RFU PIWIL2 (11732686_x_at) / Fold change /veh PIWIL2 (11732686_x_at) / RFU ORM1 (11744905_x_at) / Fold change /veh ORM1 (11744905_x_at) / RFU CCDC152 (11743942_at) / Fold change /veh CCDC152 (11743942_at) / RFU ECM1 (11717891_a_at) / Fold change /veh ECM1 (11717891_a_at) / RFU IL23R (11748794_a_at) / Fold change /veh IL23R (11748794_a_at) / RFU TNFAIP8L3 (11732012_x_at) / Fold change /veh TNFAIP8L3 (11732012_x_at) / RFU MBOAT4 (11741988_at) / Fold change /veh MBOAT4 (11741988_at) / RFU 11764193_at / Fold change /veh 11764193_at / RFU TMEM53 (11763286_at) / Fold change /veh TMEM53 (11763286_at) / RFU MAGEB2 (11727129_at) / Fold change /veh MAGEB2 (11727129_at) / RFU TMEM200A (11744735_a_at) / Fold change /veh TMEM200A (11744735_a_at) / RFU CCDC152 (11751479_a_at) / Fold change /veh CCDC152 (11751479_a_at) / RFU FAM211A (11726209_a_at) / Fold change /veh FAM211A (11726209_a_at) / RFU RGS16 (11746705_a_at) / Fold change /veh RGS16 (11746705_a_at) / RFU VCAN (11755009_s_at) / Fold change /veh VCAN (11755009_s_at) / RFU RHOB (11743442_s_at) / Fold change /veh RHOB (11743442_s_at) / RFU RGS16 (11720943_a_at) / Fold change /veh RGS16 (11720943_a_at) / RFU RGS16 (11720944_at) / Fold change /veh RGS16 (11720944_at) / RFU, VPS4B / Fold change vs veh, VPS4B / RFU, CREB1 / Fold change vs veh, CREB1 / RFU, DNAJC13 / Fold change vs veh, DNAJC13 / RFU, GNAQ / Fold change vs veh, GNAQ / RFU, CDK5R1 / Fold change vs veh, CDK5R1 / RFU, ZRANB3 / Fold change vs veh, ZRANB3 / RFU, CUL4A / Fold change vs veh, CUL4A / RFU, CCNY / Fold change vs veh, CCNY / RFU, UFL1 / Fold change vs veh, UFL1 / RFU, COG3 / Fold change vs veh, COG3 / RFU, DIAPH2 / Fold change vs veh, DIAPH2 / RFU, SKA2 / Fold change vs veh, SKA2 / RFU, AFF3 / Fold change vs veh, AFF3 / RFU, LMF1 / Fold change vs veh, LMF1 / RFU, IPO11 / Fold change vs veh, IPO11 / RFU, DFFB / Fold change vs veh, DFFB / RFU, FOXP1 / Fold change vs veh, FOXP1 / RFU, CARD8 / Fold change vs veh, CARD8 / RFU, STRN3 / Fold change vs veh, STRN3 / RFU, ADK / Fold change vs veh, ADK / RFU, RASSF2 / Fold change vs veh, RASSF2 / RFU, WIPF1 / Fold change vs veh, WIPF1 / RFU, LARP1B / Fold change vs veh, LARP1B / RFU, RASA1 / Fold change vs veh, RASA1 / RFU, RB1 / Fold change vs veh, RB1 / RFU, PPFIA1 / Fold change vs veh, PPFIA1 / RFU, MAT2A / Fold change vs veh, MAT2A / RFU, CCT5 / Fold change vs veh, CCT5 / RFU, WDR92 / Fold change vs veh, WDR92 / RFU, CUX1 / Fold change vs veh, CUX1 / RFU, TTC7A / Fold change vs veh, TTC7A / RFU, TMEM135 / Fold change vs veh, TMEM135 / RFU, DEPTOR / Fold change vs veh, DEPTOR / RFU, CPM / Fold change vs veh, CPM / RFU, DNAJB6 / Fold change vs veh, DNAJB6 / RFU, CACNA2D3 / Fold change vs veh, CACNA2D3 / RFU, DTX4 / Fold change vs veh, DTX4 / RFU, TFCP2 / Fold change vs veh, TFCP2 / RFU, GMCL1 /// GMCL1P1 / Fold change vs veh, GMCL1 /// GMCL1P1 / RFU, AEBP2 / Fold change vs veh, AEBP2 / RFU, SNHG1 /// SNORD22 /// SNORD25 /// SNORD26 /// SNORD27 /// SNORD28 /// SNORD29 /// SNORD31 / Fold change vs veh, SNHG1 /// SNORD22 /// SNORD25 /// SNORD26 /// SNORD27 /// SNORD28 /// SNORD29 /// SNORD31 / Fold change (Aza/veh), C12orf56 (ProbeSet 11735607_a_at) / Fold change (ACY-1035/veh), C12orf56 (ProbeSet 11735607_a_at) / Fold change (Aza/veh), FGFR1OP (ProbeSet 11751329_s_at) / Fold change (ACY-1035/veh), FGFR1OP (ProbeSet 11751329_s_at) / Fold change (Aza/veh), VPS36 (ProbeSet 11739960_a_at) / Fold change (ACY-1035/veh), VPS36 (ProbeSet 11739960_a_at) / RFU SYPL1 (11715823_x_at) / Fold change /veh SYPL1 (11715823_x_at) / RFU IGFBP7 (11715501_s_at) / Fold change /veh IGFBP7 (11715501_s_at) / RFU REEP3 (11722064_at) / Fold change /veh REEP3 (11722064_at) / RFU IGLL1 (11728026_x_at) / Fold change /veh IGLL1 (11728026_x_at): dose or concentration left out as unconfirmed
Conditions: MV-4-11 cells, 48 hours

For `Nc1ccc(-c2cccs2)cc1NC(=O)c1ccc2c(c1)cc(C1CC1)n2CCN1CCOCC1` [ACY-1035], the “Fold change /veh WNT11 (11732464_a_at)” value was 1.11.
